What was measured:
EcR+Usp = molecular target: T1, EcR+Usp (Drosophila melanogaster, UniProt P34021); details: cited from earlier work
T1 sequence (P34021 1-878): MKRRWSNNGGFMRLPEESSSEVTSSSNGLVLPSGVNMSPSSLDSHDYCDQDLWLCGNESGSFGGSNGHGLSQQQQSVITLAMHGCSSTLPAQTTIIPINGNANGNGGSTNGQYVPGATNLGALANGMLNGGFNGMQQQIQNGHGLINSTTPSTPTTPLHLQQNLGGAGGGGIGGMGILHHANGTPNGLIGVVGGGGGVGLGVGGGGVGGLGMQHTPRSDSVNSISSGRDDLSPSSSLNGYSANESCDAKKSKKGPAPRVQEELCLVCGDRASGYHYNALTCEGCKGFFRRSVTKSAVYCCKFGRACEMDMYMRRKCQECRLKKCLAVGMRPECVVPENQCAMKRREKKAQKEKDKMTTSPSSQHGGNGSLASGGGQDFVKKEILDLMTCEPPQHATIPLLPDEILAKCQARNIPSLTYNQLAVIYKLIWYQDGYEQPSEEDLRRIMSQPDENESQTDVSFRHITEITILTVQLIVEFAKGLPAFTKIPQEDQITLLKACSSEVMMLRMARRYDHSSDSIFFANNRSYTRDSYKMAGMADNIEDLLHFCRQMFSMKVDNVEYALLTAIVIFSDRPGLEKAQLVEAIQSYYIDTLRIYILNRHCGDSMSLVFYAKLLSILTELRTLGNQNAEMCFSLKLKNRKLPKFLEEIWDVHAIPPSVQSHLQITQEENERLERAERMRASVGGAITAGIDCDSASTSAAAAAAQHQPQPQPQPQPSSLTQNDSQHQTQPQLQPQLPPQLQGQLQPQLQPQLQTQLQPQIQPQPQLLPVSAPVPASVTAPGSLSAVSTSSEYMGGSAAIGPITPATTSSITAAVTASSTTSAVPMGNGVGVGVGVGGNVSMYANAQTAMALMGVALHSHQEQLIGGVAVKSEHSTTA
T1 sequence (P20153 1-508 partner): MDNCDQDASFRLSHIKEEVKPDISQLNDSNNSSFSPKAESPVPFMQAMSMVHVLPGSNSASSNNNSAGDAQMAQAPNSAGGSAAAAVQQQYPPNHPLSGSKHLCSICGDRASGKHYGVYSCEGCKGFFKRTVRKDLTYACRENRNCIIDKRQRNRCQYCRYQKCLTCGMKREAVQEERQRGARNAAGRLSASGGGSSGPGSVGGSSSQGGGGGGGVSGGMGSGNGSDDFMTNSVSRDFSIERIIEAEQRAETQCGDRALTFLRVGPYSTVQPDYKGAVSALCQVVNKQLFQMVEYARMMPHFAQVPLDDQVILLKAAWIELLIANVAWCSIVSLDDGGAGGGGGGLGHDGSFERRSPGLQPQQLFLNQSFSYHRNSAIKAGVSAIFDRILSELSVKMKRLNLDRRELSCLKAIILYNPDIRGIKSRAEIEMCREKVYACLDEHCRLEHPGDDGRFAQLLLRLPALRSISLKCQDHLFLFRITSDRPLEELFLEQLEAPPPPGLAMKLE

GRU1.2D-3 = molecular target: T2, GRU1.2D-3 (Bombyx mori, UniProt P49881); experiment: transient transfection luciferase expression assay (GalO-luc reporter) with VHB and GRU1.2D-3; format: cell-based; details: GRU1.2D-3 point mutant (Cys329 to Gly); 1 micromolar ligand, 48 hrs
T2 construct: BEcR hinge domain and HBD (corresponding to amino acids 272 to 606); expressed in transfected cells
T2 sequence (P49881 272-606): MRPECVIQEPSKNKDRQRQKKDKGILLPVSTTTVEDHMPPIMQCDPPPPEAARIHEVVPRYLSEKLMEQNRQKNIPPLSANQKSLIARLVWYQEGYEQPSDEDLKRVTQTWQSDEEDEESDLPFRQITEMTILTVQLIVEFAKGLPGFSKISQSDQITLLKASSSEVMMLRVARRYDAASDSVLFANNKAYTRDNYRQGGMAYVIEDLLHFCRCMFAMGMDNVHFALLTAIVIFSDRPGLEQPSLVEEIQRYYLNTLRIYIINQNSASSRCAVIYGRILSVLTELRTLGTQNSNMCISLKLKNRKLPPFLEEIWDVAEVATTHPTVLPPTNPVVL
Method: (§1) All construction and cloning was performed by standard methods and as described by Suhr et al., in Proc Natl Acad Sci USA 95(14):7999-8004 (1998) for similar chimeric proteins. For the VHB protein combining the transactivation domain of HSV VP16 protein with the hinge and hormone binding/heterodimerization domain (HBD) of Bombyx mori EcR (BEcR), the 77 amino acid (231 base pair) VP16 domain was amplified by PCR with an in-frame Mlul site at the 3′ end that was ligated with an identical site introduced into the 5′ end of the BEcR hinge domain and HBD (corresponding to amino acids 272 to 606). The final construct, termed VHB, functionally couples the VP16 domain with the BEcR high-affinity hormone responsive domains (see FIG. 3). This DNA was introduced into a number of expression constructs for expression in transduced cells.
(§2) The DNA-binding dimer partner protein fused the 95 amino acid Gal4 DNA binding domain via a BspE I site at the 3′ end to a region of either the RXR or Usp protein with high affinity ligand dependent interaction with BEcR. These variants used amino acids 200-462 of the human RXR alpha protein or amino acids 169-507 of the Drosophila Usp protein (see FIG. 3). These proteins are termed GR (for the RXR variant) or GU (for the Usp variant). […]

GRU variant 1.2 = molecular target: T3, GRU variant 1.2 (Bombyx mori, UniProt P49881); experiment: transient transfection luciferase expression assay (GalO-luc reporter) with RXR-USP chimeric protein GRU variant 1.2; format: cell-based; details: 1 micromolar ligand, 48 hrs
T3 construct: BEcR hinge domain and HBD (corresponding to amino acids 272 to 606); expressed in transfected cells
T3 sequence (P49881 272-606): T2 sequence (P49881 272-606)
Method: as §1, §2

EcR+RXR = molecular target: T4, EcR+RXR (Drosophila melanogaster, UniProt P34021); details: compared with 20-hydroxyecdysone; literature; cited from earlier work
T4 sequence (P34021 1-878): T1 sequence (P34021 1-878)
T4 sequence (P19793 1-462 partner): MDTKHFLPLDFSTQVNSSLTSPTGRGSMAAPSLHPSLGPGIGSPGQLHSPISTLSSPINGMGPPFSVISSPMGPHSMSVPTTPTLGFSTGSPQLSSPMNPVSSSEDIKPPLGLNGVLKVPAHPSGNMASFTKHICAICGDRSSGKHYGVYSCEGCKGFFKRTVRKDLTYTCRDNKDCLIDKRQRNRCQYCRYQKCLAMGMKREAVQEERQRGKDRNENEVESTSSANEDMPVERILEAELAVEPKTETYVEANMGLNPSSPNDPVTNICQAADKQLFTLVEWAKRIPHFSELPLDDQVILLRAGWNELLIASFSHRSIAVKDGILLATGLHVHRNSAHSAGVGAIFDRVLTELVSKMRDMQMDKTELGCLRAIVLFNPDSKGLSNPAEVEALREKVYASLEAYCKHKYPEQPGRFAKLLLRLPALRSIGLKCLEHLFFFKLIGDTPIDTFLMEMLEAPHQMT

[1] = test system: mammals and other non-insect species; details: extensive testing in animal hosts; cited from earlier work

Compound	stimulation of formation of EcR+Usp heterodimers (EcR+Usp; literature)	response to ligand (transactivation) (GRU1.2D-3)	response to ligand (transactivation) (GRU variant 1.2)	stimulation of formation of EcR+RXR heterodimers (EcR+RXR)	stimulation of EcR+Usp binding of EcREs over levels without ligand (EcR+Usp; literature (Christopherson, Thomas, Yao)) [fold]	toxicity to mammals and other non-insect species [1]
CC(C)(O)CC[C@@H](O)[C@](C)(O)[C@H]1CC[C@@]2(O)C3=CC(=O)[C@@H]4C[C@@H](O)[C@@H](O)C[C@]4(C)[C@H]3CC[C@]12C [20-OH ecdysone, 20-Hydroxy-ecdysone]	potently stimulated	high level response	good response			
CC(C)CC[C@@H](O)[C@](C)(O)[C@H]1CC[C@@]2(O)C3=CC(=O)[C@]4(O)C[C@@H](O)[C@@H](O)C[C@]4(C)[C@H]3[C@H](O)C[C@]12C [muristerone A]				more highly stimulated	3 to 7	
CCc1ccc(C(=O)NN(C(=O)c2cc(C)cc(C)c2)C(C)(C)C)cc1 [tebufenozide]		high level response	good response			very low toxicity

Reference: US20040102367A1, “Gene expression system based on chimeric receptors” (priority 2002, published 2004)
